From PubChem BioAssay (NCI)
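Cells were grown in 96-well plates and exposed to each compound for 48 hours at five concentrations; endpoints were interpolated linearly between bracketing concentrations, or set to the highest concentration if not reached. GI50: concentration for 50% inhibition of growth. TGI: total growth inhibition.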

Tests used:
Assay in all cases: growth of human tumour cells (NCI), 48 h
A498 renal = test system: A498 renal
HT29 colon = test system: HT29 colon
COLO 205 colon = test system: COLO 205 colon
SK-MEL-5 melanoma = test system: SK-MEL-5 melanoma
NCI-H23 lung = test system: NCI-H23 lung
A549 NSCLC = test system: A549 NSCLC
SF-295 CNS = test system: SF-295 CNS
CCRF-CEM leukemia = test system: CCRF-CEM leukemia
OVCAR-5 ovarian = test system: OVCAR-5 ovarian
HL-60(TB) leukemia = test system: HL-60(TB) leukemia

| Compound | GI50 (A498 renal) [µM] | TGI (A498 renal) [µM] | GI50 (HT29 colon) [µM] | TGI (HT29 colon) [µM] | GI50 (COLO 205 colon) [µM] | TGI (COLO 205 colon) [µM] | GI50 (SK-MEL-5 melanoma) [µM] | TGI (SK-MEL-5 melanoma) [µM] | GI50 (NCI-H23 lung) [µM] | TGI (NCI-H23 lung) [µM] | GI50 (A549 NSCLC) [µM] | TGI (A549 NSCLC) [µM] | GI50 (SF-295 CNS) [µM] | TGI (SF-295 CNS) [µM] | GI50 (CCRF-CEM leukemia) [µM] | TGI (CCRF-CEM leukemia) [µM] | GI50 (OVCAR-5 ovarian) [µM] | TGI (OVCAR-5 ovarian) [µM] | TGI (HL-60(TB) leukemia) [µM] | GI50 (HL-60(TB) leukemia) [µM] |
| --- | --- | --- | --- | --- | --- | --- | --- | --- | --- | --- | --- | --- | --- | --- | --- | --- | --- | --- | --- | --- |
| c1cc[c]([Sn]([S]c2cccc3cccnc23)([c]2ccccc2)[c]2ccccc2)cc1 | 0.152 | 0.346 | 0.0223 | 0.0908 | 0.017 | 0.0352 | 0.042 | 0.277 | 0.0305 | 0.175 | 0.0331 | 0.224 | 0.0462 | 0.144 | 0.0158 | 0.0744 |  |  |  |  |
| O=C(Nc1cc(-c2ccccc2)[nH]n1)c1ccc(Cl)cc1 | 1.27 | > 100 | 6.67 | > 100 | > 100 | > 100 | > 100 | > 100 | > 100 | > 100 | 30.4 | > 100 | 1.91 | > 100 |  |  | > 100 | > 100 |  |  |
| C=C(C)[C@@H]1CC[C@@]2(C(=O)O)CC[C@]3(C)C(CCC4[C@@]5(C)CCC(OS(=O)(=O)c6ccccc6)C(C)(C)C5CC[C@]43C)C12 (some centres not stated) | 4.68 | 20.6 | 5.52 | 18 | 5.66 | 18.2 | 1.4 | 17 | 3.28 | 15.5 | 2.44 | 17.7 | 1.93 | 11.8 | 5.28 | > 100 | 9.44 | 28.7 |  |  |
| CC(O)CN1C(=O)NC(Cc2ccccc2)C1=O (configuration not stated) |  |  |  | > 100 |  | > 100 |  |  |  | > 100 |  | > 100 |  | > 100 |  |  |  | > 100 | > 100 |  |
| COC(=O)C(Cc1ccccc1)N/C=C\C(=O)c1ccc(Cl)cc1 (configuration not stated) | 31.1 | 75.8 | 35.1 | > 100 | 32.5 | > 100 | 19.3 | 33.5 | 18.3 | 45.7 | 50.1 | > 100 | 14.8 | 35.8 | 39.7 | > 100 | 24.9 | 74.4 |  |  |
| COc1ccc(C2C(N)=NCC2c2ccccn2)cc1 (configuration not stated) |  | > 100 |  | > 100 |  | > 100 |  | > 100 |  | > 100 |  | > 100 |  | > 100 |  | > 100 |  | > 100 |  |  |
| O=C1c2ccccc2-c2c1c1ccccc1c(=O)n2CCNCCCNCCn1c2c(c3ccccc3c1=O)C(=O)c1ccccc1-2 | 0.432 | 3.33 | 0.051 |  | 0.637 | 1.59 | 1.75 | 7.9 | 0.249 | 1.13 | 0.0521 | 0.662 | 0.00771 | 0.368 | < 0.005 | 1.43 | 0.42 | 1.1 |  |  |
| Cc1ccc(-c2nc(C(Cl)Cl)n3nc(-c4ccccc4)cc3n2)cc1 |  |  | 1.1 | > 56.2 |  |  | > 100 | > 100 | 1.17 | > 100 |  |  |  |  | > 100 | > 100 |  |  |  |  |
| COC(=O)NC/C=C\c1nc(CC/C=C\C(=O)OC2CC3CC(=O)O[C@@H](/C=C/CC(C)C)C[C@@H]4CCC(C)C(C[C@@H](OC)CC(C2)O3)O4)co1 (some centres not stated) |  |  | 7.63 | > 100 | < 0.01 | 98.4 | < 0.01 | 19 | < 0.01 | > 100 |  |  | < 0.01 | 73.8 |  |  | < 0.01 | > 100 |  |  |
| COC(=O)c1c(O)ccc2[nH]c(C)c(C#N)c12 | 20.7 | 54.2 | 60.3 | > 100 | 88.5 | > 100 | 24.3 | > 100 | 77.1 | > 100 | 41.1 | > 100 | 27.4 | 92.9 |  |  | > 100 | > 100 |  |  |
| CC/C=C\C/C=C\C1CC(=O)NCCCNCCCCN1 (configuration not stated) |  |  |  | > 100 |  | > 100 |  | > 100 |  | > 100 |  | > 100 |  | > 100 |  |  |  | > 100 | > 100 |  |
| NC(N)=N/N=C/c1c(-c2ccccn2)nc2sc(Cl)cn12 |  |  |  |  | 6.26 | 17 | 8.47 | 15.4 | 11.5 | 19.1 | 6.87 | 14 | 6.93 | 13.4 |  |  | 6.3 | 12.6 | 25.8 | 11 |
| O=c1c2ccccc2c2c3c1cccc3c1cccc3c(=O)c4ccccc4c2c31 |  | > 100 |  | > 100 |  | > 100 |  | > 100 |  | > 100 |  | > 100 |  | > 100 |  | > 100 |  | > 100 |  |  |
| O=C(Nc1ccc(S(=O)(=O)N[C@@H](C(=O)O)c2ccccc2)cc1)c1ccc(F)cc1 |  | > 100 |  | > 100 |  | > 100 |  | > 100 |  | > 100 |  | > 100 |  | > 100 |  | > 100 |  | > 100 |  |  |
